Tested on: 168753-222-R-J1-PDC complex spheroid viability
Assay: Anticancer human tumor 168753-222-R-J1-PDC patient-derived bladder carcinoma cell line growth inhibition [CLK]
Conditions: for IC50: curve of first compound; for viability, T/C: stronger effect = lower value; active = viability on the fitted dose curve at most 10% of control; inactive = the rest
Outline: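 Patient-derived tumor cells grown as complex spheroids with HUVEC endothelial cells and mesenchymal stem cells, treated with drug combinations. Concentrations descend in half-log steps from near clinical Cmax, or from 10 microM if Cmax unknown.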
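Also: viability measured after seven days of drug exposure.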
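For viability, T/C in this document: luminescence signal used as surrogate for viable cell amount; 100% = DMSO vehicle control wells.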

C=CC(=O)Nc1cc(Nc2nccc(-c3cn(C)c4ccccc34)n2)c(OC)cc1N(C)CCN(C)C + CN1CCN(c2cc(C(=O)Nc3cc4cc(-c5cnn(C)c5)ccc4cn3)ccn2)CC1
> 300 nM: IC50 (second compound 0.0316 µM)
< 0.949 nM: IC50 (second compound 0.316 µM) | IC50 (second compound 1 µM) | IC50 (second compound 3.16 µM) | IC50 (second compound 10 µM)
inactive: viability, T/C (second compound 0.0316 µM, first compound 0.000949 µM) 117% | viability, T/C (second compound 0.0316 µM, first compound 0.003 µM) 113% | viability, T/C (second compound 0.0316 µM, first compound 0.00949 µM) 105% | viability, T/C (second compound 0.0316 µM, first compound 0.03 µM) 114% | viability, T/C (second compound 0.0316 µM, first compound 0.0949 µM) 103% | viability, T/C (second compound 0.0316 µM, first compound 0.3 µM) 108% | viability, T/C (second compound 0.1 µM, first compound 0.000949 µM) 65.7% | viability, T/C (second compound 0.1 µM, first compound 0.003 µM) 71.8% | viability, T/C (second compound 0.1 µM, first compound 0.00949 µM) 53.4% | viability, T/C (second compound 0.1 µM, first compound 0.03 µM) 77% | viability, T/C (second compound 0.1 µM, first compound 0.0949 µM) 21.2% | viability, T/C (second compound 0.1 µM, first compound 0.3 µM) 54.9% | viability, T/C (second compound 0.316 µM, first compound 0.000949 µM) 10.4%
active: viability, T/C (second compound 0.316 µM, first compound 0.003 µM) 8.73% | viability, T/C (second compound 0.316 µM, first compound 0.00949 µM) 9.29% | viability, T/C (second compound 0.316 µM, first compound 0.03 µM) 6.59% | viability, T/C (second compound 0.316 µM, first compound 0.0949 µM) 5.77% | viability, T/C (second compound 0.316 µM, first compound 0.3 µM) 1.61% | viability, T/C (second compound 1 µM, first compound 0.000949 µM) 0.14% | viability, T/C (second compound 1 µM, first compound 0.003 µM) 0.17% | viability, T/C (second compound 1 µM, first compound 0.00949 µM) 0.15% | viability, T/C (second compound 1 µM, first compound 0.03 µM) 0.32% | viability, T/C (second compound 1 µM, first compound 0.0949 µM) 0.13% | viability, T/C (second compound 1 µM, first compound 0.3 µM) 0.91% | viability, T/C (second compound 3.16 µM, first compound 0.000949 µM) 0.1% | viability, T/C (second compound 3.16 µM, first compound 0.003 µM) 0.13% | viability, T/C (second compound 3.16 µM, first compound 0.00949 µM) 0.21% | viability, T/C (second compound 3.16 µM, first compound 0.03 µM) 0.09% | viability, T/C (second compound 3.16 µM, first compound 0.0949 µM) 0.17% | viability, T/C (second compound 3.16 µM, first compound 0.3 µM) 2.63% | viability, T/C (second compound 10 µM, first compound 0.000949 µM) 0.15% | viability, T/C (second compound 10 µM, first compound 0.003 µM) 0.28% | viability, T/C (second compound 10 µM, first compound 0.00949 µM) 0.5% | viability, T/C (second compound 10 µM, first compound 0.03 µM) 0.15% | viability, T/C (second compound 10 µM, first compound 0.0949 µM) 0.27% | viability, T/C (second compound 10 µM, first compound 0.3 µM) 0.37%
58.9 nM: IC50 (second compound 0.1 µM)

CC1(C)CCC(CN2CCN(c3ccc(C(=O)NS(=O)(=O)c4ccc(NCC5CCOCC5)c([N+](=O)[O-])c4)c(Oc4cnc5[nH]ccc5c4)c3)CC2)=C(c2ccc(Cl)cc2)C1 + CN1CCN(c2cc(C(=O)Nc3cc4cc(-c5cnn(C)c5)ccc4cn3)ccn2)CC1
675 nM: IC50 (second compound 0.0316 µM)
154 nM: IC50 (second compound 0.1 µM)
< 31.6 nM: IC50 (second compound 0.316 µM) | IC50 (second compound 1 µM) | IC50 (second compound 3.16 µM) | IC50 (second compound 10 µM)
active: viability, T/C (second compound 0.316 µM, first compound 0.1 µM) 10.3% | viability, T/C (second compound 0.316 µM, first compound 0.316 µM) 8.72% | viability, T/C (second compound 0.316 µM, first compound 1 µM) 8.03% | viability, T/C (second compound 0.316 µM, first compound 3.16 µM) 8.36% | viability, T/C (second compound 0.316 µM, first compound 10 µM) 7.08% | viability, T/C (second compound 1 µM, first compound 0.0316 µM) 0.25% | viability, T/C (second compound 1 µM, first compound 0.1 µM) 0.31% | viability, T/C (second compound 1 µM, first compound 0.316 µM) 0.77% | viability, T/C (second compound 1 µM, first compound 1 µM) 0.22% | viability, T/C (second compound 1 µM, first compound 3.16 µM) 0.16% | viability, T/C (second compound 1 µM, first compound 10 µM) 1.27% | viability, T/C (second compound 3.16 µM, first compound 0.0316 µM) 0.41% | viability, T/C (second compound 3.16 µM, first compound 0.1 µM) 0.29% | viability, T/C (second compound 3.16 µM, first compound 0.316 µM) 0.71% | viability, T/C (second compound 3.16 µM, first compound 1 µM) 0.15% | viability, T/C (second compound 3.16 µM, first compound 3.16 µM) 1.14% | viability, T/C (second compound 3.16 µM, first compound 10 µM) 0.49% | viability, T/C (second compound 10 µM, first compound 0.0316 µM) 0.2% | viability, T/C (second compound 10 µM, first compound 0.1 µM) 0.75% | viability, T/C (second compound 10 µM, first compound 0.316 µM) 0.51% | viability, T/C (second compound 10 µM, first compound 1 µM) 0.26% | viability, T/C (second compound 10 µM, first compound 3.16 µM) 0.35% | viability, T/C (second compound 10 µM, first compound 10 µM) 1.21%
inactive: viability, T/C (second compound 0.0316 µM, first compound 0.0316 µM) 74.8% | viability, T/C (second compound 0.0316 µM, first compound 0.1 µM) 84.6% | viability, T/C (second compound 0.0316 µM, first compound 0.316 µM) 55.5% | viability, T/C (second compound 0.0316 µM, first compound 1 µM) 41.3% | viability, T/C (second compound 0.0316 µM, first compound 3.16 µM) 31.6% | viability, T/C (second compound 0.0316 µM, first compound 10 µM) 10.2% | viability, T/C (second compound 0.1 µM, first compound 0.0316 µM) 69.7% | viability, T/C (second compound 0.1 µM, first compound 0.1 µM) 60.5% | viability, T/C (second compound 0.1 µM, first compound 0.316 µM) 28.1% | viability, T/C (second compound 0.1 µM, first compound 1 µM) 35.8% | viability, T/C (second compound 0.1 µM, first compound 3.16 µM) 33.7% | viability, T/C (second compound 0.1 µM, first compound 10 µM) 10.3% | viability, T/C (second compound 0.316 µM, first compound 0.0316 µM) 10.3%

Source: PubChem BioAssay AID2060626 (Molecular Pharmacology Branch, DTP, NCI, 2025)
